{"source": "patent US11597911B2", "about": "“Expansion of populations of T cells by the use of modified serum free media” (Life Technologies Corporation, priority 2017, dated 2023)", "key": {"Primary human T cells": {"test_system": "Primary human T cells", "assay": "T cell expansion in serum-free medium with glucose, galactose or mixtures", "type": "cell-based", "settings": "final sugar 6 g/L; lipid concentrate 1:100; CD3/CD28 beads; counted days 5-12; FIG. 3", "excerpt": "FIG. 3 is a graph depicting that galactose alone is suboptimal for human T cell expansion. Primary human T cells from normal donors were negatively isolated from PBMCs with DYNABEADS® UNTOUCHED™ Human T Cells kit. T cells (seeding density 1×10^6/mL) were activated with DYNABEADS® Human T-Expander CD3/CD28 at a ratio of 3 beads per T cell and cultured in serum-free medium supplemented with GIBCO™ Chemically Defined Lipid Concentrate (1:100) and either d-glucose, d-galactose or mixtures of glucose and galactose as indicated; final concentration of sugar was 6 g/L in all conditions. T cells were fed and counted on days 5, 7, 10 and 12 on a Beckman-Coulter ViCell analyzer. Cell expansion is expressed as cumulative viable T cells over time. Results are representative of at least 3 independent experiments.\nPrimary human T cells from normal donors were negatively isolated from PBMCs with DYNABEADS® UNTOUCHED™ Human T Cells kit. […] T cells were fed and counted on days 5, 7, 10 and 12 on a Beckman-Coulter ViCell analyzer. Cell expansion is expressed as cumulative viable T cells over time. […]"}, "[1]": {"test_system": "Naïve and Central Memory CD4+ T cells", "assay": "Expansion and cytokine production of sorted CD4+ T cell subsets in limited glucose:galactose media", "type": "cell-based, human", "settings": "in the presence of low glucose; FIG. 21", "excerpt": "Bulk CD4+ T cells were sorted into Tregs, Naïve, Tcm (central memory), and Tem (effector memory) subsets based on the markers CD25, CD45RA, CD62L, and CCR7. Based on FIG. 20, T cells of different subpopulations may be sorted through use of FACS. […] Expanded naïve CD4+ T cells preserve the naïve phenotype when grown in limited glucose, as witnessed through FACS analysis (see FIG. 22 and FIG. 23).\nWhile good expansion of T cells can be achieved in media containing multiple ratios of glucose and galactose, ratios with limiting glucose can have a negative impact in interferon gamma production. There is evidence that interferon-gamma expression is regulated via GAPDH in T-cells (Chang, et al Cell. 2013 June 6; 153(6): 1239-1251) thus excessively limiting glycolysis during T cell expansion can impair IFN-γ production. […] Central memory T cells appear not to be effected by glucose level. […] Primary human CD4+ T cells from normal donors isolated via negative selection were obtained from UPenn Human Immunology Core Facility. Cells were separated by flow cytometric sorting into Naïve (CD45RA+/CD27+/CCR7+), and Central Memory (CD45RA−/CD27+/CCR7+), subsets. […] T cells were fed and counted on days 5, 7, 10 and 12 on a Beckman-Coulter Multisizer 3. […]"}}}
{"smiles": "O=C[C@H](O)[C@@H](O)[C@@H](O)[C@H](O)CO", "note": "[D-galactose]", "values": [{"measurement": "in vitro T cell expansion (cumulative viable T cells over time)", "setting": "Primary human T cells", "value": "not sufficient to support optimal in vitro T cell expansion"}, {"measurement": "expansion of naïve T cells", "setting": "[1]", "value": "high rate of expansion"}]}
